Laboratory results published in patent publication US12178786B2, “Combination of cellular immunotherapy” (CRAGE medical Co., Limited, priority 2018, dated 2024).

Tests used:
[1] = tested on: IL2; assay: Effect of sorafenib on cytokine secretion of CAR T cells (Cytometric Bead Array); assay type: cell-based, human; settings: general statement of the applicant's finding
Procedure: As for the specific steps, referring to the steps in the manual of The Cytometric Bead Array System (BD, USA), which are briefly described as follows:
b) The microspheres (cytometric bead array system, BD, USA) capturing the human cytokine IL2, IFN-γ, and TNF-α are taken to mix in a suspension.
c) The mixture of the microspheres for capturing and detection antibody are added into the standard or supernatant sample, incubating at room temperature in the dark; after the incubation is completed, it is washed with washing buffer, then centrifuging, and discarding the supernatant.
The secretion levels of IL-2, IFN-γ and TNF-α are detected by flow cytometry, and the results are shown in FIGS. 8A, 8B, and 8C, wherein ns means p>0.05; *p<0.05; **p<0.01; ***p<0.001, one-way ANOVA.

[2] = compound II administrated alone in the clinical trial; cited from earlier work

## CNC(=O)c1cc(Oc2ccc(NC(=O)Nc3ccc(Cl)c(C(F)(F)F)c3)cc2)ccn1 [sorafenib]
[1]
  secretion of the cytokine IL2 by CAR T cells: promote CAR T cells to secrete the cytokine IL2
[2]
  approximate concentration in the patient's body: ~6.5 µM
